Data as given in the supplement of paper PMC10307832.

What was measured:
Assay in all cases: relative viability (nuclei count vs DMSO), 5 days (fraction); higher = more cells survive
Alisertib + Vorinostat = compound: COc1cc(Nc2ncc3c(n2)-c2ccc(Cl)cc2C(c2c(F)cccc2OC)=NC3)ccc1C(=O)O [Alisertib] + O=C(CCCCCCC(=O)Nc1ccccc1)NO [Vorinostat] (partner 1 µM)
In short: (§1)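 For relative viability, nuclei counts in treated wells were divided by those in vehicle wells. Lung cancer cell lines had been pin-tool dosed in 1536-well plates the day after seeding and cultured for 5 days, then fixed and stained in one step (final 0.05% Triton X-100, 1% formaldehyde, 1 ug/ml Hoechst) and imaged at 4×. Doses were one drug alone or a fixed anchor-drug dose plus five library-drug doses (not always all listed) in √10 steps, and values are duplicate-plate medians.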

Alisertib + Palbociclib = compound: COc1cc(Nc2ncc3c(n2)-c2ccc(Cl)cc2C(c2c(F)cccc2OC)=NC3)ccc1C(=O)O [Alisertib] + CC(=O)c1c(C)c2cnc(Nc3ccc(N4CCNCC4)cn3)nc2n(C2CCCC2)c1=O [Palbociclib] (partner 0.5 µM)
In short: as §1

Alisertib + Dasatinib = compound: COc1cc(Nc2ncc3c(n2)-c2ccc(Cl)cc2C(c2c(F)cccc2OC)=NC3)ccc1C(=O)O [Alisertib] + Cc1nc(Nc2ncc(C(=O)Nc3c(C)cccc3Cl)s2)cc(N2CCN(CCO)CC2)n1 [Dasatinib] (partner 0.075 µM)
In short: as §1

Alisertib + Pemetrexed = compound: COc1cc(Nc2ncc3c(n2)-c2ccc(Cl)cc2C(c2c(F)cccc2OC)=NC3)ccc1C(=O)O [Alisertib] + Nc1nc2[nH]cc(CCc3ccc(C(=O)N[C@@H](CCC(=O)O)C(=O)O)cc3)c2c(=O)[nH]1 [Pemetrexed] (partner 0.2 µM)
In short: as §1

Cell Line	relative viability (Alisertib + Vorinostat; first compound 0.005 µM)	relative viability (Alisertib + Vorinostat; first compound 0.01581 µM)	relative viability (Alisertib + Vorinostat; first compound 0.05 µM)	relative viability (Alisertib + Vorinostat; first compound 0.1581 µM)	relative viability (Alisertib + Vorinostat; first compound 0.5 µM)	relative viability (Alisertib + Palbociclib; first compound 0.005 µM)	relative viability (Alisertib + Palbociclib; first compound 0.01581 µM)	relative viability (Alisertib + Palbociclib; first compound 0.05 µM)	relative viability (Alisertib + Palbociclib; first compound 0.1581 µM)	relative viability (Alisertib + Palbociclib; first compound 0.5 µM)	relative viability (Alisertib + Dasatinib; first compound 0.005 µM)	relative viability (Alisertib + Dasatinib; first compound 0.01581 µM)	relative viability (Alisertib + Dasatinib; first compound 0.05 µM)	relative viability (Alisertib + Dasatinib; first compound 0.1581 µM)	relative viability (Alisertib + Dasatinib; first compound 0.5 µM)	relative viability (Alisertib + Pemetrexed; first compound 0.005 µM)	relative viability (Alisertib + Pemetrexed; first compound 0.01581 µM)	relative viability (Alisertib + Pemetrexed; first compound 0.05 µM)	relative viability (Alisertib + Pemetrexed; first compound 0.1581 µM)	relative viability (Alisertib + Pemetrexed; first compound 0.5 µM)
201T	0.927	0.881	0.913	0.414	0.333	0.351	0.33	0.327	0.28	0.24	0.527	0.556	0.583	0.327	0.284	0.314	0.299	0.358	0.335	0.274
A-427	0.603	0.41	0.313	0.27	0.262	0.493	0.444	0.255	0.276	0.24	0.645	0.565	0.291	0.139	0.128	0.818	0.5	0.266	0.265	0.251
ABC-1	0.993	0.753	0.46	0.249	0.332	0.697	0.661	0.67	0.371	0.316	0.46	0.436	0.434	0.226	0.243					
BEN	0.522	0.456	0.332	0.332	0.385	0.45	0.444	0.348	0.327	0.384	0.499	0.39	0.296	0.178	0.138	0.629	0.784	0.335	0.358	0.342
CAL-12T	0.506	0.592	0.262	0.189	0.169	0.327	0.259	0.188	0.138	0.172	0.275	0.158	0.0813	0.113	0.0899	1.14	1.15	0.242	0.235	0.176
COR-L23	0.347	0.35	0.151	0.09	0.0909	0.253	0.234	0.142	0.112	0.0947	0.486	0.439	0.23	0.0935	0.0796	0.197	0.196	0.189	0.179	0.134
COR-L 105	0.687	0.701	0.496	0.302	0.321	0.368	0.417	0.356	0.33	0.37	0.291	0.296	0.293	0.194	0.177	1.08	0.995	0.952	0.607	0.298
ChaGo-K-1	0.653	0.643	0.24	0.207	0.161	0.817	0.686	0.219	0.203	0.166	0.488	0.6	0.277	0.165	0.162	0.238	0.281	0.238	0.189	0.169
EKVX	0.684	0.551	0.285	0.263	0.319	0.386	0.431	0.27	0.183	0.176	0.541	0.47	0.243	0.244	0.229	0.364	0.377	0.266	0.172	0.187
EMC-BAC-2	0.28	0.257	0.202	0.186	0.151	0.51	0.416	0.4	0.382	0.268	0.315	0.221	0.185	0.161	0.128	0.445	0.429	0.447	0.405	0.3
EPLC-272H	0.454	0.401	0.248	0.104	0.132	0.32	0.318	0.303	0.236	0.238	0.304	0.365	0.382	0.0703	0.0736	0.284	0.245	0.172	0.138	0.118
H3255	0.8	0.822	0.656	0.337	0.264	0.313	0.314	0.312	0.278	0.249	0.328	0.445	0.279	0.242	0.292	0.516	0.572	0.457	0.309	0.255
HARA	0.44	0.131	0.0659	0.0632	0.0823	0.288	0.242	0.243	0.161	0.147	0.265	0.283	0.279	0.125	0.0962	0.262	0.211	0.26	0.21	0.125
HCC-15	0.777	0.588	0.201	0.167	0.134	0.661	0.465	0.296	0.213	0.146	0.45	0.332	0.232	0.104	0.102	0.234	0.212	0.187	0.143	0.135
HCC-44	1.05	0.784	0.397	0.387	0.339	0.949	0.85	0.636	0.616	0.338						0.566	0.601	0.545	0.45	0.394
HCC-78	0.369	0.281	0.234	0.241	0.217	0.5	0.458	0.357	0.407	0.307	0.379	0.369	0.177	0.171	0.188	0.889	0.909	0.895	0.959	0.926
HCC-366	0.171	0.0448	0.0208	0.0312	0.0381	0.361	0.322	0.0243	0.0284	0.039	0.674	0.353	0.0282	0.0222	0.0468	0.169	0.131	0.0451	0.0421	0.0514
HCC-827	0.779	0.717	0.753	0.29	0.274	0.459	0.537	0.379	0.27	0.207	0.279	0.409	0.246	0.194	0.236	0.277	0.264	0.25	0.232	0.173

Cell Line	relative viability (Alisertib + Vorinostat; first compound 0.005 µM)	relative viability (Alisertib + Vorinostat; first compound 0.01581 µM)	relative viability (Alisertib + Vorinostat; first compound 0.05 µM)	relative viability (Alisertib + Vorinostat; first compound 0.1581 µM)	relative viability (Alisertib + Vorinostat; first compound 0.5 µM)	relative viability (Alisertib + Palbociclib; first compound 0.005 µM)	relative viability (Alisertib + Palbociclib; first compound 0.01581 µM)	relative viability (Alisertib + Palbociclib; first compound 0.05 µM)	relative viability (Alisertib + Palbociclib; first compound 0.1581 µM)	relative viability (Alisertib + Palbociclib; first compound 0.5 µM)	relative viability (Alisertib + Dasatinib; first compound 0.005 µM)	relative viability (Alisertib + Dasatinib; first compound 0.01581 µM)	relative viability (Alisertib + Dasatinib; first compound 0.05 µM)	relative viability (Alisertib + Dasatinib; first compound 0.1581 µM)	relative viability (Alisertib + Dasatinib; first compound 0.5 µM)	relative viability (Alisertib + Pemetrexed; first compound 0.005 µM)	relative viability (Alisertib + Pemetrexed; first compound 0.01581 µM)	relative viability (Alisertib + Pemetrexed; first compound 0.05 µM)	relative viability (Alisertib + Pemetrexed; first compound 0.1581 µM)	relative viability (Alisertib + Pemetrexed; first compound 0.5 µM)
HOP-62	0.497	0.443	0.174	0.102	0.138	0.431	0.489	0.233	0.188	0.14	0.537	0.688	0.433	0.185	0.154	0.282	0.283	0.204	0.171	0.112
IA-LM	0.986	0.87	0.564	0.189	0.0645															
LC-2-ad	0.454	0.313	0.24	0.177	0.161	0.413	0.459	0.282	0.276	0.21	0.315	0.33	0.263	0.202	0.133	0.263	0.228	0.215	0.177	0.175
LCLC-97TM1	0.524	0.515	0.135	0.0952	0.0792	0.222	0.215	0.127	0.0905	0.0969	0.773	0.712	0.709	0.192	0.173	0.162	0.173	0.186	0.118	0.0781
LCLC-103H	0.67	0.561	0.352	0.323	0.396	0.44	0.485	0.385	0.335	0.4	0.455	0.509	0.423	0.26	0.158	0.497	0.511	0.417	0.399	0.347
LK-2	0.229	0.326	0.167	0.176	0.186	0.684	0.67	0.403	0.178	0.148	0.353	0.267	0.212	0.192	0.153	0.286	0.236	0.188	0.141	0.148
LOU-NH91	0.834	0.821	0.602	0.422	0.371	0.505	0.529	0.511	0.501	0.397	0.526	0.624	0.477	0.351	0.296	0.428	0.385	0.369	0.349	0.354
LU99A	0.467	0.428	0.177	0.16	0.187	0.386	0.418	0.189	0.185	0.174	0.502	0.513	0.323	0.183	0.17	0.205	0.193	0.185	0.161	0.145
LXF-289	0.587	0.493	0.189	0.139	0.188	0.571	0.527	0.267	0.204	0.181	0.206	0.256	0.0522	0.0513	0.0398	0.794	0.61	0.376	0.169	0.174
NCI-H23	0.456	0.24	0.132	0.153	0.149	0.476	0.442	0.319	0.205	0.203	0.67	0.661	0.301	0.173	0.198	0.489	0.346	0.271	0.213	0.212
NCI-H322M	0.806	0.864	0.772	0.502	0.514	0.473	0.475	0.477	0.413	0.417	0.233	0.23	0.26	0.184	0.206	0.588	0.628	0.561	0.4	0.427
NCI-H358	0.551	0.449	0.105	0.1	0.0875	0.111	0.117	0.104	0.0711	0.0985	0.168	0.176	0.114	0.0896	0.0837	0.162	0.165	0.167	0.112	0.0889
NCI-H596	0.514	0.655	0.616	0.488	0.311						0.593	0.688	0.626	0.53	0.342	0.504	0.506	0.473	0.447	0.38
NCI-H727	1.19	0.986	0.939	0.471	0.561	0.565	0.647	0.534	0.483	0.474	0.425	0.357	0.397	0.243	0.242					
NCI-H1563											0.441	0.544	0.442	0.414	0.387	0.806	0.807	0.683	0.543	0.663
NCI-H1648		0.22	0.315	0.235	0.236		0.265	0.22	0.258	0.239							0.658	0.752	0.27	0.276
NCI-H1792						0.697	0.522	0.423	0.343	0.169	0.727	0.732	0.413	0.252	0.162	0.674	0.346	0.203	0.0756	0.0468
